pIC50: −log10 of the molar value.
Biological target: human IDO1 (Homo sapiens, UniProt P14902)
Test: Assessment of human IDO-1 inhibitory activity in HEK cells (human IDO1/HEK293 cells, kynurenine read-out with Ehrlich reagent, absorbance 490 nm)
Format: cell-based
Parameters: expressed in transfected cells
Conditions: HEK Human IDO-1 cellular assay
Method in brief: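 Kynurenine output from stably IDO1-transfected HEK293 cells (10,000/well, phenol red-free RPMI, 10% FBS) after 20 h compound exposure at 37 °C. The reaction was stopped with 0.2% TCA and heated 30 min at 50 °C, then the supernatant was mixed with Ehrlich reagent and read at 490 nm. IC50 was set against DMSO and a 500 nM reference standard as 0 and 100% inhibition.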

human IDO1, sequence (P14902 whole entry): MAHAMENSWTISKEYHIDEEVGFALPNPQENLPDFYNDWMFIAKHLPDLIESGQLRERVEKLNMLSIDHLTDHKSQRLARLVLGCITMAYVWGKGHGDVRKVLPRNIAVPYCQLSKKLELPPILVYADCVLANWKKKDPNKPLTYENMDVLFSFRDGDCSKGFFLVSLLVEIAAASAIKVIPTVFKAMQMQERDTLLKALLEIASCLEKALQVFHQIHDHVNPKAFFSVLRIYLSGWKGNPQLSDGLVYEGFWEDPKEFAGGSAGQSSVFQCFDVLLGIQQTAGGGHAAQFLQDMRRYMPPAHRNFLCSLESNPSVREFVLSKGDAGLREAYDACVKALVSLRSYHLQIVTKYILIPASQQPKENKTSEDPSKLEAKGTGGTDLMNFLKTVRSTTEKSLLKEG

Row | pIC50 | SMILES
1 | > 8.30 | CC[C@H](CC(=O)O)c1ccc(N(CC)C2CCOCC2)c(NC(=O)Nc2ccc(Cl)cc2)c1 (single isomer, unassigned) [Example 531]
2 | > 8.30 | COCC(CC(=O)O)c1cc(F)c(N(CC(C)C)CC(C)C)c(NC(=O)Cc2ccc(Cl)cc2F)c1 (single isomer, unassigned) [Example 1180, 3-(3-(2-(4-Chloro-2-fluorophenyl)acetamido)-4-(diisobutylamino)-5-fluorophenyl)-4-methoxybutanoic acid]
3 | > 7.30 | CCOc1ncc(Nc2cc(C(CC)CC(=O)O)ccc2N2CCC[C@H]2C(C)(C)O)cn1 (single isomer, unassigned) [Example 823]
4 | > 7.30 | CCC(CC(=O)O)c1ccc(N2CCC[C@@H]2C(C)(C)O)c(Nc2ccc(Cl)cc2)c1 (single isomer, unassigned) [Example 773]
5 | > 7.30 | CCC(CC(=O)O)c1ccc(N(CC2CC2)C2CCOCC2)c(NC(=O)Nc2ccc(C)cc2)c1 (stereo not shown) [Example 698]
6 | < 7.30 | CC[C@H](CC(=O)O)c1ccc(N(CC(C)C)C2CCS(=O)(=O)CC2)c(NC(=O)Nc2cc(C)on2)c1 (single isomer, unassigned) [Example 213]
7 | < 7.30 | COCC(CC(=O)O)c1ccc(N(CC(C)C)C2CCOCC2)c(NC(=O)Nc2ccc(C)cc2)c1 (single isomer, unassigned) [Example 1209, 3-(4-(Isobutyl(tetrahydro-2H-pyran-4-yl)amino)-3-(3-(p-tolyl)ureido)phenyl)-4-methoxybutanoic acid]
8 | > 8.30 | CCOc1ccc(NC(=O)Nc2cc(C(CC)CC(=O)O)c(F)cc2N(CC(C)C)C2CCCCC2)cc1 (single isomer, unassigned) [Example 1108, 3-(4-(Cyclohexyl(isobutyl)amino)-5-(3-(4-ethoxyphenyl)ureido)-2-fluorophenyl)pentanoic acid]
9 | > 7.30 | CCC(CC(=O)O)c1ccc(N(CC(C)C)C2CCCCC2)c(Nc2ccc(Cl)c(OCC(F)(F)F)c2)c1 (single isomer, unassigned) [Example 644, 3-(3-((4-chloro-3-(2,2,2-trifluoroethoxy)phenyl)amino)-4-(cyclohexyl (isobutyl)amino)phenyl) pentanoic acid]
10 | > 8.30 | CC[C@H](CC(=O)O)c1ccc(N2CCC[C@@H]2C(C)(C)O)c(Nc2ccc(Cl)cc2)c1 (single isomer, unassigned) [Example 780]
11 | > 8.30 | CCN(c1ccc(C(C)CC(=O)O)cc1NC(=O)Nc1ccc(Cl)cc1F)C1CCOCC1 (single isomer, unassigned) [Example 637 E1, 3-(3-(3-(4-Chloro-2-fluorophenyl)ureido)-4-(ethyl(tetrahydro-2H-pyran-4-yl)amino)phenyl)butanoic acid]
12 | > 8.30 | CCN(c1ccc(C(CC(=O)O)C2CC2)cc1Nc1ccc(C#N)cc1)C1CCOCC1 (single isomer, unassigned) [Example 37, 3-(3-((4-cyanophenyl)amino)-4-(ethyl(tetrahydro-2H-pyran-4-yl)amino)phenyl)-3-cyclopropylpropanoic acid]
13 | > 7.30 | CCC(CC(=O)O)c1ccc(N2CCC[C@H]2C(C)(C)O)c(Nc2ccc(F)cc2)c1 (single isomer, unassigned) [Example 840]
14 | > 8.30 | CC[C@H](CC(=O)O)c1ccc(N2CCOC[C@@H]2C(C)C)c(Nc2ccc(C#N)cc2)c1 (single isomer, unassigned) [Example 92]
15 | > 8.30 | CCC(CC(=O)O)c1cc(F)c(N(CC(C)C)CC(C)C)c(NC(=O)Cc2ccc(C)cc2F)c1 (single isomer, unassigned) [Example 1094 E1]
16 | > 7.30 | Cc1cc(CC(=O)Nc2cc(C(CC(=O)O)C3CC3)ccc2N(CC(C)C)C2CCCCC2)no1 (single isomer, unassigned) [Example 1251, 3-(4-(Cyclohexyl(isobutyl)amino)-3-(2-(5-methylisoxazol-3-yl)acetamido)phenyl)-3-cyclopropylpropanoic acid]

Row | pIC50 | SMILES
17 | > 8.30 | CC[C@H](CC(=O)O)c1ccc(N(CC(C)(C)O)C2CCOCC2)c(Nc2ccc3c(c2)OC(F)(F)O3)c1 (single isomer, unassigned) [Example 204]
18 | > 7.30 | CCC(CC(=O)O)c1ccc(N2CCC[C@H]2C(C)(C)O)c(Nc2ccc(C#N)cc2)c1 (single isomer, unassigned) [Example 825]
19 | < 7.30 | CCc1ccc(Nc2cc(C(C)CC(=O)O)ccc2N2C[C@@H](C)O[C@@H](C)C2)cc1 (single isomer, unassigned) [Example 740]
20 | < 7.30 | CC(CC(=O)O)c1ccc(N2CCC[C@H]2C(C)(C)O)c(Nc2ccc(C#N)cc2)c1 (single isomer, unassigned) [Example 797]
21 | < 7.30 | CCOc1ncc(Nc2cc(C(C)(C)CC(=O)O)ccc2N(CC)C2CCC(C)(O)CC2)cn1 (stereo not shown) [Example 3, 3-(3-((2-ethoxypyrimidin-5-yl)amino)-4-(ethyl(4-hydroxy-4-methylcyclohexyl)amino)phenyl)-3-methylbutanoic acid]
22 | > 7.30 | CC[C@H](CC(=O)O)c1ccc(N2CCOC[C@@H]2C(C)C)c(Nc2ccc3c(c2)OC(F)(F)O3)c1 (single isomer, unassigned) [Example 93]
23 | > 8.30 | CCC(CC(=O)O)c1ccc(N(CC(C)C)C2CCCCC2)c(Nc2ccc(OC(F)(F)F)cc2)c1 (single isomer, unassigned) [Example 312, 3-(4-(cyclohexyl(isobutyl)amino)-3-((4-(trifluoromethoxy)phenyl)amino)phenyl)pentanoic acid]
24 | > 7.30 | CC[C@@H](CC(=O)O)c1ccc(N2CCOC[C@@H]2C(C)C)c(Nc2ccc(Cl)cc2)c1 (single isomer, unassigned) [Example 78]
25 | > 7.30 | CC[C@H](CC(=O)O)c1ccc(N2CCOC[C@@H]2C(C)C)c(NC(=O)Nc2ccc(Cl)cc2F)c1 (single isomer, unassigned) [Example 86]
26 | < 7.30 | CCOc1ncc(Nc2cc(C(C)CC(=O)O)ccc2N(CC(C)(C)O)C2CCCCC2)cn1 (single isomer, unassigned) [Example 50, 3-(4-(cyclohexyl(2-hydroxy-2-methylpropyl)amino)-3-((2-ethoxypyrimidin-5-yl)amino)phenyl)butanoic acid]
27 | > 8.30 | CC[C@H](CC(=O)O)c1ccc(N(CC)C2CCOCC2)c(Nc2cnc(OC)nc2)c1 (single isomer, unassigned) [Example 519]
28 | > 8.30 | CC[C@@H](CC(=O)O)c1ccc(N(CC(C)C)C2CCS(=O)(=O)CC2)c(Nc2ccc3c(c2)OC(F)(F)O3)c1 (single isomer, unassigned) [Example 220]
29 | > 7.30 | CCC(CC(=O)O)c1cc(F)c(N(CC(C)C)CC(C)C)c(Nc2ccc(Cl)c(OCC(F)(F)F)c2)c1 (single isomer, unassigned) [Example 118, 3-(3-((4-chloro-3-(2,2,2-trifluoroethoxy)phenyl)-amino)-4-(diisobutylamino)-5-fluorophenyl)pentanoic acid]
30 | < 7.30 | CCN(c1ccc([C@@H](COC)CC(=O)O)cc1NC(=O)Nc1cc(C)on1)C1CCOCC1 (single isomer, unassigned) [Example 428]
31 | > 8.30 | CCOc1ccc(CC(=O)Nc2cc(C(CC(=O)O)C3CC3)ccc2N(CC(C)C)C2CCCCC2)cc1 (single isomer, unassigned) [Example 1248, 3-(4-(Cyclohexyl(isobutyl)amino)-3-(2-(4-ethoxyphenyl)acetamido)phenyl)-3-cyclopropylpropanoic acid]

— US9790169B2, “IDO inhibitors” (BRISTOL-MYERS SQUIBB COMPANY, priority 2015, dated 2017)
